Data: publication PMC3731359 (PLoS ONE, 2013)
“Also recorded” adds a separate entry of the source.

B1: peptide pN26 (70VLALRGG76) (peptide)
peptide: VLALRGG
B2: peptide pN7 (70VMLFYGG76) (peptide)
peptide: VMLFYGG
B3: peptide pN1 (70VWLSYGG76) (peptide)
peptide: VWLSYGG

Experiments:
NAE [1] = target: T1, NAE (Homo sapiens, UniProt Q13564+Q8TBC4); test: ATP/PPi exchange assay (NAE activation kinetics); format: biochemical; conditions: for activation by NAE: 50 µM heptameric peptide, 0.5 µM NAE, 30 min, room temperature, versus background with no peptide added; for kcat/Km: Nedd8 mimicking heptameric peptides, 0.1 µM NAE, 10–1000 µM peptide, pH 7.5, room temperature
T1 construct: made in house; host or cells: E. coli BL21(DE3)pLysS
T1 sequence (Q8TBC4 22-463 limits assumed): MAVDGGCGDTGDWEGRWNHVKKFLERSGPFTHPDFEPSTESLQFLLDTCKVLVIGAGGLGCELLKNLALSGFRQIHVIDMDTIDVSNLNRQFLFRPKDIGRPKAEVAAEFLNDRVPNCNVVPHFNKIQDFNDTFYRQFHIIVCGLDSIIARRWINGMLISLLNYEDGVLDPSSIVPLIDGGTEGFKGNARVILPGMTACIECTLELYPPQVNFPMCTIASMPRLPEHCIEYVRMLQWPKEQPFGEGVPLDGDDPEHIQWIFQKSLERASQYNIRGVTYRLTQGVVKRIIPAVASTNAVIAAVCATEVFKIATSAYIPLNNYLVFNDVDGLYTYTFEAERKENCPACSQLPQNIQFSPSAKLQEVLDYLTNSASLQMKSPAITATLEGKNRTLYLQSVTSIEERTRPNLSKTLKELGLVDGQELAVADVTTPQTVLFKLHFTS
T1 sequence (Q13564 1-534 partner): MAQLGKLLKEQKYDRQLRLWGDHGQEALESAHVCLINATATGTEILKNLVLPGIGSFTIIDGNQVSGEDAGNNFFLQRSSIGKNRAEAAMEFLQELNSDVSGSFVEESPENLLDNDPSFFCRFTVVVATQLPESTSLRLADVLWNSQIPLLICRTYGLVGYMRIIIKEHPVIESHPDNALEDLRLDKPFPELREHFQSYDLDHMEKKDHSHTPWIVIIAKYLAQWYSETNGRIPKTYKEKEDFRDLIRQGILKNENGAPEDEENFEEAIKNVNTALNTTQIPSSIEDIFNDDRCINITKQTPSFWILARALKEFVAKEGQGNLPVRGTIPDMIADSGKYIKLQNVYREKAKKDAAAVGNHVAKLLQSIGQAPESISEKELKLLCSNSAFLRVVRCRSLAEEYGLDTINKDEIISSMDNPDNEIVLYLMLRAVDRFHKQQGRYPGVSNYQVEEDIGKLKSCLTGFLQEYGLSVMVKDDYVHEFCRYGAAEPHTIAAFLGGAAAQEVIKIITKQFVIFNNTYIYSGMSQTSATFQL
From the text: We used the ATP/PPi exchange assay [28], [29] to measure the kinetics of NAE activation of UB mutants. In this assay, NAE catalyzes the condensation of UB with ATP to form a UB-AMP conjugate coupled to the release of PPi. Externally added PPi labeled with the radioactive isotope ^32P sets the reaction in reverse thus incorporating ^32PPi into ATP. Radioactive ATP formed in the reaction is captured by charcoal and quantified. The rate of ^32PPi exchange into ATP reflects the reactivities of NAE with the UB variants to form UB-AMP intermediates.
The reaction was incubated for 30 min at room temperature and then quenched by the addition of 0.5 mL slurry of charcoal in 2% trichloroacetic acid. After centrifugation, the charcoal pellet was washed 3 times each time with 1 mL 2% trichloroacetic acid, and eventually resuspended in 0.5 mL water and 3.5 mL Ultima Gold LSC-cocktail (Perkin Elmer). The radioactivity bound to charcoal was determined by liquid scintillation counting.
The reaction was incubated at room temperature for 5, 10, 15, 20 and 25 minutes before it was quenched with the addition of 0.5 mL slurry of charcoal in 2% trichloroacetic acid. The radioactivity incorporated into charcoal-bound ATP was measured by liquid scintillation counting. K1/2 and kcat values of the ATP-PPi exchange reaction were calculated by fitting the data to the Michaelis-Menten equation with the data analysis software Origin. To measure peptide activation by NAE, 0.1 µM NAE was used in the reaction with the concentration of the peptides varying from 10 µM to 1000 µM.

NAE (E1) = test: Western blot: formation of UB∼NAE thioester conjugates; format: biochemical; conditions: 5 µM HA-tagged protein, 1 µM NAE, 1 mM ATP, 1 h, room temperature, anti-HA Western blot
Protocol: (§1) Figure 6 Transfer of phage selected UB variants to NAE (E1), Ubc12 (E2), and cullin-3. HA-tagged wt UB, wt Nedd8 and UB variants were used in the assay. In the control reaction, either Ubc12 or cullin-3 in complex with Rbx1 was missing. The blots were probed with a mouse anti-HA antibody and a goat anti-mouse IgG antibody linked to HRP.
(§2) 20 µL of the reaction mixture were loaded on a 4–15% SDS-PAGE gel (Bio-Rad). After electrophoresis, the protein bands were electroblotted onto a piece of polyvinylidene fluoride membrane (Bio-Rad). The membrane was blocked with 3% BSA in TBS buffer for 1 hour followed by incubation with 3% BSA in TBS buffer containing 1∶500 diluted 200 µg/mL anti-HA antibody (Santa Cruz Biotechnology) and 1∶10,000 diluted anti-mouse horseradish peroxidase conjugate (Pierce) for 1 hour, respectively. The membrane was then washed 5 times with TBS-T buffer and 5 times with TBS buffer followed by detection with the ECL luminescent detection kit (GE Healthcare).

Ubc12 (E2) = test: Western blot: transfer of UB variants to Ubc12; format: biochemical; conditions: 5 µM HA-tagged protein, 1 µM NAE, 1 µM Ubc12, 1 µM cullin, 1 mM ATP, 1 h, room temperature, anti-HA Western blot
Protocol: as §1, §2

cullin-3 [2] = test: Western blot: transfer of UB variants to cullin-3; format: biochemical; conditions: 5 µM HA-tagged protein, 1 µM NAE, 1 µM Ubc12, 1 µM cullin, 1 mM ATP, 1 h, room temperature, anti-HA Western blot
Protocol: as §1, §2

NAE [3] = target: T1, NAE; test: Western blot: peptide∼NAE thioester conjugate formation; format: biochemical; conditions: 5 µM peptide biotin-conjugated at N-terminus, 1 µM NAE, 1 mM ATP, 1 h, room temperature, streptavidin-HRP blot
Protocol: (§3) The peptides were conjugated to biotin at their N-termini. The Uba3 subunit of NAE formed the thioester conjugate with the peptides. The Western blot was probed with streptavidin conjugated to HRP.
(§4) Biotin Conjugation of the Peptides
(§5) Heptameric peptides with the C-terminal sequences of wt UB, wt Nedd8, and UB variants from phage selection were ordered from EZBiolab (Carmel, Indiana). The peptides were further purified by HPLC to be more than 95% pure. Peptide pN1 (2 mg, […]) was added to a solution of N-hydroxysuccinimidyl-6′-(biotinamido)-6-hexanamido hexanoate (NHS-LC-LC-biotin, Pierce) (4.4 mg, 7.750 µmol) in 50 mM sodium phosphate buffer (pH 7.0, 300 µL) and DMSO (300 µL). The reaction was allowed to proceed by stirring overnight at room temperature. The reaction mixture was then purified by HPLC with a gradient of 5–85% acetonitrile in 0.1% TFA/water at a flow rate of 10 mL/min over the course of 25 minutes. Biotin was conjugated to the N-terminal amino groups of the peptides pN7 and N26 with the same procedure. The purified biotin-peptide conjugates were lyophilized, and their identities were confirmed via MALDI-TOF mass spectrometry (positive mode): biotin-pN1 (VWLSYGG), calculated: 1256.10 Da (MNa^+), found: 1254.87 Da; biotin-pN7 (VMLFYGG), calculated: 1261.19 Da (MNa^+), found:1260.49 Da; biotin-pN26 (VLALRGG), calculated: 1138.06 Da (MH^+), found:1137.78 Da.
(§6) To assay the transfer of biotin conjugated peptides to NAE, Ubc12 and cullin, 5 µM biotin labeled peptide, 1 µM NAE, 1 µM Ubc12 and 1 µM cullin were incubated with 1 mM ATP, 10 mM MgCl2 and 50 µM DTT in the TBS buffer for 1 hour at room temperature before SDS-PAGE and membrane blotting. The membrane was blocked with 3% BSA in TBS buffer for 1 hour followed by incubation with 3% BSA in TBS buffer containing 1∶10,000 diluted 1 mg/mL streptavidin-horse radish peroxidase conjugate (Pierce) for 1 hour. The membrane was then washed 5 times with TBS-T buffer and 5 times with TBS buffer followed by detection with the ECL luminescent detection kit.

Ubc12 [4] = test: Western blot: peptide transfer to Ubc12; format: biochemical; conditions: 5 µM peptide biotin-conjugated at N-terminus, 1 µM NAE, 1 µM Ubc12, 1 µM cullin, 1 h, room temperature, streptavidin-HRP blot
Protocol: as §3, §4, §5, §6

cullin 3 = test: Western blot: peptide transfer to cullin 3; format: biochemical; conditions: 5 µM peptide biotin-conjugated at N-terminus, 1 µM NAE, 1 µM Ubc12, 1 µM cullin, 1 h, room temperature, streptavidin-HRP blot
Protocol: as §3, §4, §5, §6

NAE [5] = target: T1, NAE; test: Inhibition of Nedd8 transfer through the cascade: NAE conjugate; format: biochemical; conditions: 5–200 µM peptide, 0.5 µM NAE, 0.5 µM Ubc12, 1 µM cullin, 1 h, then 5 µM HA-Nedd8, 15 min, Western blot
From the text: as §3

Ubc12 [6] = test: Inhibition of Nedd8 transfer to Ubc12; format: biochemical; conditions: 5–200 µM peptide, 0.5 µM NAE, 0.5 µM Ubc12, 1 µM cullin, 1 h, then 5 µM HA-Nedd8, 15 min, Western blot
From the text: as §3

cullin-3 [7] = test: Inhibition of Nedd8 transfer to cullin (cullin neddylation); format: biochemical; conditions: 5–200 µM peptide, 0.5 µM NAE, 0.5 µM Ubc12, 1 µM cullin, 1 h, then 5 µM HA-Nedd8, 15 min, Western blot
From the text: as §3

[8] = target: T2, Nedd8 activating enzyme (NAE), heterodimer of APPBP1 and Uba3 (UniProt Q13564 1-534; Q8TBC4 33-463); test: cell-based or functional assay
T2 sequence 1: T1 sequence (Q13564 1-534 partner)
T2 sequence 2: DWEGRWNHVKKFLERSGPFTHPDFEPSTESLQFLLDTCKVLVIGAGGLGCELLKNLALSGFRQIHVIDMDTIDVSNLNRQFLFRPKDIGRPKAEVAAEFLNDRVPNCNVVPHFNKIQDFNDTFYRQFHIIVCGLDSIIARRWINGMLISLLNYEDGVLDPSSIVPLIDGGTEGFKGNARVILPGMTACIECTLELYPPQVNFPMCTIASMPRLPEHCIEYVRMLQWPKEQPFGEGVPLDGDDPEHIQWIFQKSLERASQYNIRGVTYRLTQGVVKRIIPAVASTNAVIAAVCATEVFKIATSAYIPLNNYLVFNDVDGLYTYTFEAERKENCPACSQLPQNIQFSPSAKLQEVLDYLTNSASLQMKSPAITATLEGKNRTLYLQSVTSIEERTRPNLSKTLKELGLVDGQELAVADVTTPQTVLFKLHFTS

Molecule | activation by NAE (NAE [1]) | formation of peptide∼NAE thioester conjugates (NAE [3]) | formation of peptide∼Ubc12 conjugates (Ubc12 [4]) | transfer of peptide to cullin 3 (cullin 3) | Nedd8 conjugates with NAE after preloading with peptide (NAE [5]) | Nedd8 conjugates with Ubc12 after preloading with peptide (Ubc12 [6]) | Nedd8 conjugates with cullin after preloading with peptide (cullin-3 [7]) | kcat of the ATP/PPi exchange reaction catalyzed by NAE [8] [s⁻¹] | kcat/Km of the ATP/PPi exchange reaction catalyzed by NAE [8] [M⁻¹ s⁻¹] | also measured
VAAAAGG [pN11, heptameric peptide VAAAAGG derived from UB variant N11] | not reactive with NAE | – | – | – | – | – | – | – | – | –
N27: UB variant from phage selection, C-terminal sequence 71YQTYSG76, Gly75 replaced by Ser | – | – | – | – | – | – | – | – | – | formation of UB∼NAE conjugates (NAE (E1)): normal level of NAE activation and thioester formation with NAE; transfer from NAE to Ubc12 (UB∼Ubc12 conjugates) (Ubc12 (E2)): does not form a UB∼Ubc12 conjugate; transfer to cullin (cullin modification) (cullin-3 [2]): its transfer to Ubc12 and cullin is blocked
VLALRGG [pN26] | can be activated at a level significantly higher than the background | can form thioester conjugates with NAE | strong activity for the formation of peptide∼Ubc12 conjugates | can be further transferred to cullin 3 | did not produce any Nedd8 conjugates with NAE, Ubc12 or cullin | did not produce any Nedd8 conjugates with NAE, Ubc12 or cullin | did not produce any Nedd8 conjugates with NAE, Ubc12 or cullin | – | – | –
N11: UB variant from phage selection, C-terminal sequence 71AAAAGG76 | – | – | – | – | – | – | – | – | – | transfer from NAE to Ubc12 (UB∼Ubc12 conjugates) (Ubc12 (E2)): can also be transferred from NAE to Ubc12; transfer to cullin (cullin modification) (cullin-3 [2]): substantial cullin modification at a level similar or exceeding that of wt Nedd8; also recorded: can also be transferred through the NAE-Ubc12 cascade to modify cullin at a similar level as N26 and the wt Nedd8
VWLSYGG [pN1, Nedd8-mimicking heptameric peptide VWLSYGG] | can be activated at a level significantly higher than the background | can form thioester conjugates with NAE; also recorded: form peptide∼NAE conjugates at a similar level as pN26 | no observable formation of peptide∼Ubc12 conjugates | none of them can form peptide-cullin conjugates at a detectable level | did not produce any Nedd8 conjugates with NAE, Ubc12 or cullin | did not produce any Nedd8 conjugates with NAE, Ubc12 or cullin | did not produce any Nedd8 conjugates with NAE, Ubc12 or cullin | – | – | kcat/Km (NAE [1]): 3000 M⁻¹ s⁻¹
VMLFYGG [pN7, Nedd8-mimicking heptameric peptide VMLFYGG] | can be activated at a level significantly higher than the background | can form thioester conjugates with NAE; also recorded: form peptide∼NAE conjugates at a similar level as pN26 | only has low activity for transferring to Ubc12 | none of them can form peptide-cullin conjugates at a detectable level | did not produce any Nedd8 conjugates with NAE, Ubc12 or cullin | did not produce any Nedd8 conjugates with NAE, Ubc12 or cullin | did not produce any Nedd8 conjugates with NAE, Ubc12 or cullin | – | – | kcat/Km (NAE [1]): 2670 M⁻¹ s⁻¹
B1 | – | – | – | – | – | – | – | 0.433 | 4830 | –
B2 | – | – | – | – | – | – | – | 0.4 | 2670 | Km (K1/2) of the ATP/PPi exchange reaction catalyzed by NAE [8]: 155 µM
B3 | – | – | – | – | – | – | – | 0.4 | 3000 | Km (K1/2) of the ATP/PPi exchange reaction catalyzed by NAE [8]: 130 µM
